This passage reports GI50 and IC50 results from patent US10947215B2, “Heteroaryl compounds and their use as therapeutic drugs” (Dong-A Socio Holdings Co., Ltd., priority 2015, dated 2021).

Assay [1] has as its system Ba/F3-CDM cells (Ba/F3 transfected with CD8-MerTK). The experiment in a line: In cell MER kinase assay, Ba/F3-CDM cell proliferation without IL-3 (Celltiter-Glo, GI50). The note with it: 48 hours, read-out: Cell growth inhibition (GI50). The assay is classed as cell-based, murine. The gist of the method: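 Ba/F3 cells expressing CD8-MerTK were grown without IL-3, so that proliferation depends on MerTK. Cells were pre-incubated 24 h, then exposed to compound for 48 h. Viability was read by CellTiter-Glo, with IL-3-supplemented Ba/F3 run in parallel as a nonspecific cytotoxicity control, and GI50 was derived.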

The target in assay [2] is human c-MER catalytic domain (Homo sapiens (Human), UniProt Q12866). Kind of assay: LanthaScreen TR-FRET biochemical kinase assay (c-MER). The note with it: read-out: Mer TK inhibition (IC50), 10 uM ATP.
Chain of human c-MER catalytic domain (Q12866 587-858): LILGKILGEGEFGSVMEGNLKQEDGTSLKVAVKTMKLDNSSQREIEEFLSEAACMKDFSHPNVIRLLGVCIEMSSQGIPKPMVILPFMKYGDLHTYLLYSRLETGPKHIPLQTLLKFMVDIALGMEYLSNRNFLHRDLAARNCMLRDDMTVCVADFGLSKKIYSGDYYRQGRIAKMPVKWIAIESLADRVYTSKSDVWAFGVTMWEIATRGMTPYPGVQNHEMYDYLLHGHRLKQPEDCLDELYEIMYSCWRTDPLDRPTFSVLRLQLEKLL

As to `C[C@@H]1CN(Cc2ccc(-c3ccc(CO[C@H]4CCC[C@@H]4NC(=O)c4cc(-c5cnn(C)c5)cnc4N)cc3)cc2)C[C@H](C)N1C` [Example 190, 2-amino-5-(1-methyl-1H-pyrazol-4-yl)-N-((1S,2S)-2-((4′-((cis-3,4,5-trimethylpiperazin-1-yl)methyl)-[1,1′-biphenyl]-4-yl)methoxy)cyclopentyl)-nicotinamide], the GI50 in assay [1] was < 100 nM. In addition, the IC50 in assay [2] is < 10 nM.
For `C[C@@H]1CN(C)[C@@H](C)CN1Cc1ccc(-c2ccc(CO[C@H]3CCC[C@@H]3NC(=O)c3cc(-c4cnn(C)c4)cnc3N)cc2)cc1` [Example 192, 2-amino-5-(1-methyl-1H-pyrazol-4-yl)-N-((1S,2S)-2-((4′-(((2R,5S)-2,4,5-trimethylpiperazin-1-yl)methyl)-[1,1′-biphenyl]-4-yl)methoxy)cyclopentyl)nicotinamide], in that order: < 100 nM and < 10 nM.
In the same order, the values of `CCc1cc(CO[C@H]2CNC[C@@H]2NC(=O)c2cc(-c3ccc(CO)cc3)cnc2N)ccc1C` [Example 389, 2-amino-N-((3S,4S)-4-((3-ethyl-4-methylbenzyl)oxy)pyrrolidin-3-yl)-5-(4-(hydroxymethyl)phenyl)nicotinamide] are 100 to 500 nM and < 10 nM.
